Tests used:
Experiment in all cases: relative viability (nuclei count vs DMSO), 5 days (fraction); higher = more cells survive
Carfilzomib + Pemetrexed = compound: CC(C)C[C@H](NC(=O)[C@H](CCc1ccccc1)NC(=O)CN1CCOCC1)C(=O)N[C@@H](Cc1ccccc1)C(=O)N[C@@H](CC(C)C)C(=O)[C@@]1(C)CO1 [Carfilzomib] + Nc1nc2[nH]cc(CCc3ccc(C(=O)N[C@@H](CCC(=O)O)C(=O)O)cc3)c2c(=O)[nH]1 [Pemetrexed] (partner 0.2 µM)
Method in brief: (§1)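 Relative viability is defined as nuclei in treated wells over nuclei in vehicle wells. Duplicate plates were run and medians reported. Lung cancer cell lines in 1536-well plates were dosed by pin tool one day after seeding, with one drug or with a fixed anchor-drug dose plus five library-drug doses (not always all listed) in √10 steps, and nuclei were counted after 5 days.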

Crizotinib + OSI-027 = compound: C[C@@H](Oc1cc(-c2cnn(C3CCNCC3)c2)cnc1N)c1c(Cl)ccc(F)c1Cl [Crizotinib] + COc1cccc2cc(-c3nc([C@H]4CC[C@H](C(=O)O)CC4)n4ncnc(N)c34)[nH]c12 [OSI-027] (partner 0.5 µM)
Method in brief: as §1

Crizotinib + Alpelisib = compound: C[C@@H](Oc1cc(-c2cnn(C3CCNCC3)c2)cnc1N)c1c(Cl)ccc(F)c1Cl [Crizotinib] + Cc1nc(NC(=O)N2CCC[C@H]2C(N)=O)sc1-c1ccnc(C(C)(C)C(F)(F)F)c1 [Alpelisib] (partner 2 µM)
Method in brief: as §1

Olaparib + Linsitinib = compound: O=C(c1cc(Cc2n[nH]c(=O)c3ccccc23)ccc1F)N1CCN(C(=O)C2CC2)CC1 [Olaparib] + C[C@]1(O)C[C@@H](c2nc(-c3ccc4ccc(-c5ccccc5)nc4c3)c3c(N)nccn32)C1 [Linsitinib] (partner 1 µM)
Method in brief: as §1

Row | Cell Line | relative viability (Carfilzomib + Pemetrexed; first compound 0.001 µM) | relative viability (Carfilzomib + Pemetrexed; first compound 0.003162 µM) | relative viability (Carfilzomib + Pemetrexed; first compound 0.01 µM) | relative viability (Carfilzomib + Pemetrexed; first compound 0.03162 µM) | relative viability (Carfilzomib + Pemetrexed; first compound 0.1 µM) | relative viability (Crizotinib + OSI-027; first compound 0.01 µM) | relative viability (Crizotinib + OSI-027; first compound 0.03162 µM) | relative viability (Crizotinib + OSI-027; first compound 0.1 µM) | relative viability (Crizotinib + OSI-027; first compound 1 µM) | relative viability (Crizotinib + Alpelisib; first compound 0.01 µM) | relative viability (Crizotinib + Alpelisib; first compound 0.03162 µM) | relative viability (Crizotinib + Alpelisib; first compound 0.1 µM) | relative viability (Crizotinib + Alpelisib; first compound 1 µM) | relative viability (Olaparib + Linsitinib; first compound 0.08 µM) | relative viability (Olaparib + Linsitinib; first compound 0.253 µM) | relative viability (Olaparib + Linsitinib; first compound 2.53 µM) | relative viability (Olaparib + Linsitinib; first compound 8 µM) | relative viability (Crizotinib + OSI-027; first compound 0.3162 µM) | relative viability (Crizotinib + Alpelisib; first compound 0.3162 µM)
1 | NCI-H441 | 0.26 | 0.257 | 0.244 | 0.134 | 0.133 | 0.569 | 0.553 | 0.601 | 0.603 | 0.795 | 0.648 | 0.859 | 0.711 | 0.658 | 0.528 | 0.544 | 0.485 | – | –
2 | ABC-1 | – | – | – | – | – | – | 0.526 | 0.426 | 0.402 | 0.964 | 1.15 | 1.22 | 0.976 | 1.1 | 0.918 | 0.644 | 0.556 | 0.422 | 1.02
3 | NCI-H2170 | 0.262 | 0.277 | 0.254 | 0.24 | 0.183 | 0.775 | 0.839 | 0.741 | 0.691 | 0.804 | 0.779 | 0.74 | 0.904 | – | – | – | – | 0.573 | 0.709
4 | NCI-H1944 | 0.615 | 0.664 | 0.628 | 0.563 | 0.242 | 0.396 | 0.421 | 0.402 | 0.397 | 0.787 | – | 0.804 | 0.861 | 1.22 | 1.05 | 1.12 | 0.876 | 0.391 | 0.808
5 | PC-3 [JPC-3] | 1.04 | 1.1 | 1.23 | 0.642 | 0.294 | 0.786 | 0.802 | 0.76 | 0.745 | 0.959 | 1.04 | 1.05 | 1.07 | 0.93 | 0.914 | 0.962 | 0.908 | 0.683 | 0.998
6 | NCI-H1648 | 0.717 | 0.671 | 0.805 | 0.416 | 0.263 | 0.274 | 0.265 | – | 0.257 | – | – | – | – | – | – | – | – | 0.224 | –
7 | NCI-H1975 | 0.281 | 0.31 | 0.224 | 0.123 | 0.115 | 0.72 | 0.812 | 0.755 | 0.721 | 0.682 | 0.683 | 0.673 | 0.68 | 1.02 | 0.95 | 0.9 | 0.895 | 0.754 | 0.689
8 | NCI-H650 | 0.954 | 1.04 | 1.27 | 0.781 | 0.137 | 0.587 | 0.508 | 0.544 | 0.59 | 0.955 | 1.2 | 1.06 | 1.17 | 0.806 | 0.735 | 0.776 | 0.724 | 0.423 | 1.06
9 | NCI-H1623 | – | – | – | – | – | 0.439 | 0.435 | 0.454 | 0.4 | – | – | – | – | – | – | – | – | 0.378 | –
10 | NCI-H1755 | 0.42 | 0.497 | 0.475 | 0.37 | 0.311 | 0.678 | 0.716 | 0.625 | 0.644 | 0.899 | 0.844 | 0.938 | 0.959 | 1.03 | 0.917 | 0.92 | 0.918 | 0.531 | 0.902
11 | NCI-H1666 | 0.896 | 0.914 | 0.898 | 0.799 | 0.562 | 0.8 | 0.893 | 0.837 | 0.855 | 0.964 | – | 1 | 0.959 | 0.901 | 0.841 | 0.75 | 0.655 | 0.903 | 0.984
12 | NCI-H1792 | – | 0.937 | 0.773 | 0.49 | 0.0813 | 0.72 | 0.748 | 0.656 | 0.722 | 0.627 | 0.789 | 0.658 | 0.726 | 0.7 | 0.46 | 0.421 | 0.324 | – | 0.663
13 | CAL-12T | 1.19 | 1.37 | 1.15 | 0.832 | 0.168 | 0.639 | 0.71 | 0.67 | 0.586 | 1.19 | 1.35 | 1.28 | 1.36 | 1.05 | 0.751 | 0.825 | 0.666 | – | 1.13
14 | EPLC-272H | 0.367 | 0.263 | 0.46 | 0.114 | 0.0633 | 0.312 | 0.253 | 0.287 | 0.259 | 0.862 | 0.854 | 0.942 | 1.02 | 1.25 | 1.11 | 1.21 | 1.03 | 0.252 | 0.864
15 | IA-LM | – | – | – | – | – | – | – | – | – | 0.726 | 0.814 | 0.805 | 0.675 | 0.891 | 0.391 | 0.672 | 0.443 | – | 0.737
16 | PC-14 | 0.145 | 0.14 | 0.197 | 0.0596 | 0.0657 | 0.826 | 0.898 | 0.8 | 1.03 | 0.914 | 0.921 | 0.931 | 0.911 | 1.02 | 0.856 | 0.859 | 0.815 | 0.867 | 0.845
17 | NCI-H1703 | – | – | – | – | – | – | – | – | – | 0.285 | 0.299 | 0.329 | 0.366 | 0.9 | 0.697 | 0.881 | 0.408 | – | 0.364
18 | NCI-H1437 | 0.282 | 0.352 | 0.334 | 0.273 | 0.286 | 0.758 | 0.901 | 0.824 | – | 0.869 | 0.973 | 0.925 | 0.907 | 1.18 | 0.927 | 1.02 | 0.788 | – | 0.938
19 | NCI-H358 | 0.169 | 0.164 | 0.173 | 0.136 | 0.102 | 0.628 | 0.897 | 0.673 | 0.772 | 0.81 | 0.802 | 0.798 | 0.759 | 0.842 | 0.608 | 0.668 | 0.592 | 0.664 | 0.852
